Measured values: patent US20210085789A1, “PHARMACEUTICAL COMPOSITION FOR CANCER TREATMENT” (SEOUL NATIONAL UNIVERSITY R&DB FOUNDATION, priority 2017, published 2021)

System: HeLa cells
Assay: CCK-8 cell viability after light irradiation (dose-dependent PDT effect)
Assay type: cell-based, human
Conditions: 660 nm LED 30 mW cm−2 for 10 minutes
Procedure: In order to determine viability of cells treated with FA-MnO2, HeLa cells (1×10^4 cells/well) were prepared in three (3) 96-well plates for 24 hours, and cultured with FA-MnO2 at different concentrations as well as a complete medium. After incubation for 12 hours, the cells were gently washed with 1×PBS and CCK-8 analysis solution as well as a serum-free medium were added thereto for one hour, followed by measuring absorbance at wavelengths of 450 nm and 670 nm using a micro-plate reader (Molecular Devices, Inc., USA).
Next, in order to determine quantitative cell viability associated with photodynamic effects of FA-MnO2/ZnPc, HeLa cells (1×10^4 cells/well) were seeded on a 96-well plate, incubated for 24 hours, and then, treated with FA-MnO2/ZnPc and ZnPc at various concentrations. After the incubation for 12 hours, each well was irradiated with 660 nm LED (Mikwang Electronics, Korea) at 30 mW cm^−2 for 10 minutes. After additional incubation in a serum-containing medium for 12 hours, analysis of CCK-8 cell vitality was assessed in the same manner as described above.

IC50: 115.1 ± 3.4 µg/mL
SMILES: [Zn+2].c1ccc2c(c1)-c1nc-2nc2[n-]c(nc3nc([n-]c4nc(n1)-c1ccccc1-4)-c1ccccc1-3)c1ccccc21 [ZnPc, zinc phthalocyanine]
